The record followed here is paper PMC7564282, “Juniperonic Acid Biosynthesis is Essential in Caenorhabditis elegans Lacking Δ6 Desaturase (fat-3) and Generates New ω-3 Endocannabinoids” (Cells, 2020).

For one experiment, the system named is MAGL. The experiment can be described thus: Competitive [3H]2-OG hydrolysis assay in pig brain homogenate. Format: biochemical.
The target of another experiment is T1, NPR-32 (Caenorhabditis elegans, UniProt O62403).
T1 sequence (O62403 1-440): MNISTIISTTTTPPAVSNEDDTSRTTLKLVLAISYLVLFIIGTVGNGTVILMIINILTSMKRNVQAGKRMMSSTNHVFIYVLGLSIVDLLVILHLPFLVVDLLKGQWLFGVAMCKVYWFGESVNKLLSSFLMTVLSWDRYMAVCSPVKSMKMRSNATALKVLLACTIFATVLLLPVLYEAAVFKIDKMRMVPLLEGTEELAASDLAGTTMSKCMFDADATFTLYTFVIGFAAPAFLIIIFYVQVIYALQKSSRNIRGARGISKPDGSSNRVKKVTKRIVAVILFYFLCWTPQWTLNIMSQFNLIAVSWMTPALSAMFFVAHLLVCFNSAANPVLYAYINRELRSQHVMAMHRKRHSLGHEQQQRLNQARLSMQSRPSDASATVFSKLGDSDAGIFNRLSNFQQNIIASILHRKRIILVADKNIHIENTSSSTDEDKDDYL
The experiment can be described thus: NPR-32 competitive binding assay with [3H]CP55,940 on N2 (WT) membrane preparations. Details: species or system C. elegans. On the procedure:
(§1) Worm homogenization and membrane preparation: the animals were collected from NGM plates as described before. The animals were freshly broken/homogenized by tip sonication before the beginning of every assays in S-basal and then a protein estimation was carried out for these samples, by a standard BCA kit (Sigma-Aldrich, St. Louis, MO, USA). For membrane preparations the worm pellet was resuspended in homogenization buffer (50 mM Tris HCl pH = 7.4, 3 mM MgCl2, 1 mM EGTA). Next, the homogenate was transferred to an ultracentrifuge tube and spun at 100,000× g for 60 min at 4 °C. The supernatant was carefully removed and the pellet was gently washed. Then, the pellet was resuspended with the help of a polytron in 50 mM Tris HCl pH = 7.4 and passed through a clean syringe. Finally, the sample was sonicated in a water bath for 5 min. A protein estimation for the membranes was carried out and the aliquots were frozen and stored at −80 °C.
CP55,940 for 75 min at 30 °C. After the incubation time, membrane suspensions were rapidly filtered through a 0.1% polyethyleneimine presoaked 96-well microplate bonded with GF/B glass fiber filters (UniFilter-96 GF/B, PerkinElmer Life Sciences) under vacuum and washed 12 times with 120 µL of washing buffer (50 mM Tris-HCl, 2.5 mM EDTA, 5 mM MgCl2, 0.5% BSA, pH 7.5). […] The results were analyzed with GraphPad Prism 5® and expressed as % of [^3H]CP55,940 binding. IC50 values of each compound were estimated from fitted nonlinear curves and were used to calculate the Ki values by applying the Cheng-Prusoff equation.

The subject of experiment [1] is 2-OG hydrolysis in whole worm homogenates. The experiment can be described thus: Competitive [3H]2-OG hydrolysis assay in whole worm homogenate. Format: biochemical, C. elegans. On the procedure: as §1
(§2) AEA and [^3H] 2-OG, respectively. The reaction was performed using worm homogenate (200 or 100 µg per sample) or pig brain homogenate (200 µg per sample) in 194 μL of assay buffer (10 mM Tris-HCl, 1 mM EDTA, 0.1 % BSA, pH 8.0). […] Signal was detected with TRICARB 2100TR scintillation counter and results were analyzed with GraphPad Prism 5® and expressed as [^3H] […]

In experiment [2] the test system is fat-3(wa22) mutant. Nature of the experiment: Development monitoring after dietary PUFA supplementation. The class given is in vivo, C. elegans. To be noted: 200 μM in E. coli OP50 diet, 36 h after hatching, 23 °C. On the procedure: Ten mM stock solutions of AA, ω-3 AA and JuA were prepared in DMSO and kept at −20 °C. These stocks were diluted in E. coli OP50 to a final concentration of 200 μM, and 100 μL of the volume was seeded onto each plate, with appropriate DMSO controls, allowing drying for 1 h in the dark. The animals that were treated with the PUFAs from hatching were allowed to grow on these plates until they reached L4 larval stage. For monitoring the development N2 (WT) and fat-3(wa22) gravid animals were allowed to lay eggs for 2–3 h. These eggs were transferred onto NGM plates supplemented with PUFAs as described above. Their growth was monitored and then imaged using an AmScope MU1000 camera, USA.

In another experiment the test system is N2 (WT) animals. The experiment can be described thus: Lifespan assay, N2 (WT). Format: in vivo, C. elegans. The note with it: supplementation, 23 °C, 50 μg/mL FUDR. On the procedure: (§3) Ten mM stock solutions of AA, ω-3 AA and JuA were prepared in DMSO and kept at −20 °C. These stocks were diluted in E. coli OP50 to a final concentration of 200 μM, and 100 μL of the volume was seeded onto each plate, with appropriate DMSO controls, allowing drying for 1 h in the dark. The animals that were treated with the PUFAs from hatching were allowed to grow on these plates until they reached L4 larval stage.
All lifespan assays were carried out at 23 °C. Synchronized populations were obtained by allowing 10–15 hermaphrodites lay eggs overnight, and the next day the parents were removed. The eggs were allowed to hatch and 30 L4/young adult animals per plate (NGM plate containing 50 μg/mL FUDR to prevent the growth of progeny) were used for each assay. All the assays were carried out at least in triplicates and a minimum of two independent trials were performed for all conditions. The dead animals were counted starting the next day and exploding, protruding, bagging or contaminated animals were censored if applicable. We defined the day when we transferred the L4/young adult animals as day 0 of adult age. All statistical analyses were carried out using results that were analyzed with GraphPad Prism 5®. Kaplan–Meier lifespan analysis was carried out, and p values were calculated using the log-rank test. p < 0.05 was accepted as statistically significant.

Experiment [3] relates to fat-3(wa22) mutant. The experiment can be described thus: Brood size assay after dietary PUFA supplementation. The class given is in vivo, C. elegans. The note with it: for hatching and brood size defects: fat-3(wa22), 200 μM in E. coli OP50 diet, p < 0.0001. On the procedure:
as §3
N2 (WT) and fat-3(wa22) were transferred onto NGM plates supplemented with PUFAs as described above. Once they reached L4 larval stage, one worm per plate was transferred to a plate freshly seeded with PUFAs and allowed to grow at 23 °C. These animals were transferred to new plates every 24 h until they ceased to lay eggs. The number of hatched progeny was checked and counts were performed after the population reached L3/L4 stage. This assay was carried out in three independent trials. Results were analyzed with GraphPad Prism 5®, San Diego, CA, USA. The data were pooled and analyzed using Student’s t test. p < 0.05 was accepted as statistically significant.
The RNA interference (RNAi) by feeding assay was performed on NGM agar plates supplemented with additional antibiotics ([…], […]) and 0.8 mM isopropyl-β-D-thiogalactopyranosid (IPTG). The Ahringer RNAi collection was used, E. coli HT115 bacteria containing RNAi vectors expressing double-stranded RNA of the genes fat-4, elo-1, and elo-2 were pre-cultured, induced with IPTG, and used as nematode food as described previously. Assays were carried out on plates seeded with RNAi bacteria induced overnight; the PUFAs were dissolved in sterile distilled water, and then overlaid on the plates just before the assays.

For a further experiment, the target named is T2, FAAH-1 (Caenorhabditis elegans, UniProt Q17449).
T2 construct: from tissue; host or cells: whole C. elegans worm homogenate
T2 sequence (Q17449 15-572): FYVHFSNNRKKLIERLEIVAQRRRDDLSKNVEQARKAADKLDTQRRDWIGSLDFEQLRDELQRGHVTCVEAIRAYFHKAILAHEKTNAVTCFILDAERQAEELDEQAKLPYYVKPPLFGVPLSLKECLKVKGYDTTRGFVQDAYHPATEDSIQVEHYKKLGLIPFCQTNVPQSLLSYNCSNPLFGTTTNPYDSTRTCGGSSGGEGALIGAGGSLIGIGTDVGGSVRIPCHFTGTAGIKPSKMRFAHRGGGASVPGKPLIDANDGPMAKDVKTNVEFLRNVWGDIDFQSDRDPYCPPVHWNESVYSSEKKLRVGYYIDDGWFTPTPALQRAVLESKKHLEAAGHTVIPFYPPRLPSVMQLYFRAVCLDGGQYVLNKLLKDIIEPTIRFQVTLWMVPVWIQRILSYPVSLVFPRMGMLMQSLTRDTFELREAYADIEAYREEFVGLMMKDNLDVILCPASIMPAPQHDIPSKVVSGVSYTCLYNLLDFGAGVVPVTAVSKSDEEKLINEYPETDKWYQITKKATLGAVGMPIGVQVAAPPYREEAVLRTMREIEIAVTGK
Nature of the experiment: Competitive [3H]AEA hydrolysis assay in whole worm homogenate. Format: biochemical, C. elegans. On the procedure: as §1, §2

In a further experiment the target is T3, FAAH (Sus scrofa, UniProt Q9TUI8).
T3 construct: or pig brain homogenate (200 µg per sample); from tissue; host or cells: pig brain homogenate
T3 sequence (Q9TUI8 1-579): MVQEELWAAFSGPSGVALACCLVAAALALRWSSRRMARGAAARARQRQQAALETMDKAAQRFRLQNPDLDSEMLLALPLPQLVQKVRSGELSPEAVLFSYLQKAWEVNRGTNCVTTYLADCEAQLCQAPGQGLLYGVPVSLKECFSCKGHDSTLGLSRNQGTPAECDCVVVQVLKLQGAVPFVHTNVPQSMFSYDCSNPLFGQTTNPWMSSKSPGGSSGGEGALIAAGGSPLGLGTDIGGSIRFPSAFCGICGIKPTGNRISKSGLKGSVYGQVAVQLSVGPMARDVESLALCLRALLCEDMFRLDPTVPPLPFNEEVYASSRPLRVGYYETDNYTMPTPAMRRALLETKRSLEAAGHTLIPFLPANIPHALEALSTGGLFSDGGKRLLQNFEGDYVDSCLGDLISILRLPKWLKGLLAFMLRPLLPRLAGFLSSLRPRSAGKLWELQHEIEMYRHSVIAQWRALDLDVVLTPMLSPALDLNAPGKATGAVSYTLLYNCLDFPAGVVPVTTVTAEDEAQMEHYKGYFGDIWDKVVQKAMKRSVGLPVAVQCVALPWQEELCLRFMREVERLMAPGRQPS
The experiment can be described thus: Competitive [3H]AEA hydrolysis assay in pig brain homogenate. Format: biochemical. On the procedure: AEA and [^3H] 2-OG, respectively. The reaction was performed using worm homogenate (200 or 100 µg per sample) or pig brain homogenate (200 µg per sample) in 194 μL of assay buffer (10 mM Tris-HCl, 1 mM EDTA, 0.1 % BSA, pH 8.0). […] The reaction was stopped by adding 400 μL of ice-cold mixture CHCl3-CH3OH (1:1 v/v), and, subsequently, tubes were vortexed and centrifuged for 10 min at 4 °C and 10,000 rpm. Finally, the upper aqueous phase was transferred to scintillation vials and mixed with 3 mL of Ultima Gold scintillation liquid. Signal was detected with TRICARB 2100TR scintillation counter and results were analyzed with GraphPad Prism 5® and expressed as [^3H] AEA or [^3H] 2-OG hydrolysis (% of vehicle).

[4] abbreviates: displacement of 3 nM [3H]CP55,940, N2 (WT) membranes, 5 µM JZL-195 preincubation; apparent Ki by Cheng-Prusoff; 95% CI; read-out: Ki, NPR-32 binding.
The mark [5] stands for this setting: read-out: Ki, NPR-32 binding; displacement of 3 nM [3H]CP55,940, N2 (WT) membranes, 5 µM JZL-195 preincubation; apparent Ki by Cheng-Prusoff; 95% CI.

Read-outs that look alike come from different tables or passages of the source. Bounds are passed on as bounds.

As for 1/2-juniperoylglycerol [1/2-JG], the “hydrolysis by MAGL (competition with tritiated 2-OG)” value in the experiment with MAGL is “readily hydrolyzed”. Also, the Ki at NPR-32 (setting [4]) is 1100 nM. The “competition with 2-OG hydrolysis” value in experiment [1] is listed as “competed”.

On to `CCCCC/C=C\C/C=C\C/C=C\C/C=C\CCCC(=O)O` [AA, Arachidonic acid], for which, in the experiment with fat-3(wa22) mutant [2], the “recovery of growth and development defects” value (shortened to “recovery”) was “significant recovery of growth and development defects”. Moreover, the effect on lifespan entry in the experiment on N2 (WT) animals is “did not affect the lifespan”. Also, in the experiment with fat-3(wa22) mutant [3], the “hatching and brood size defects” value is listed as “recovered”.

As for `CCCCC/C=C\C/C=C\C/C=C\C/C=C\CCCC(=O)NCCO` [AEA, N-arachidonoyl ethanolamine], the Ki at NPR-32 (setting [5]) is 1900 nM.

With `CC/C=C\C/C=C\C/C=C\CCCC/C=C\CCCC(=O)NCCO` [JEA, N-juniperoyl ethanolamine], the Ki at NPR-32 (setting [4]) was determined as 740 nM. For the same compound, the “competition with AEA hydrolysis” value on FAAH-1 (whole worm homogenates) is “competed”. Besides, the “hydrolysis by FAAH (competition with tritiated AEA)” value at FAAH is reported as “readily hydrolyzed”.

On to `CC/C=C\C/C=C\C/C=C\CCCC/C=C\CCCC(=O)O` [JuA, Juniperonic acid], for which, in the experiment with fat-3(wa22) mutant [2], the “recovery” value is “significant recovery of growth and development defects”. Further, in the experiment with N2 (WT) animals, the effect on lifespan result is “did not affect the lifespan”. Further, the “reversal of growth delay and brood size reduction in RNAi knockdowns” value in the experiment with fat-3(wa22) mutant [3] (fat-3(wa22) with fat-4 and elo-2 RNAi knockdown, JuA supplementation) is listed as “could reverse the additional detrimental effects”. Moreover, the “hatching and brood size defects” value in the experiment on fat-3(wa22) mutant [3] is recorded as “recovered”.

On to `CC/C=C\C/C=C\C/C=C\C/C=C\CCCCCCC(=O)O` [ω-3 AA, Omega-3 arachidonic acid], for which the “recovery” value in the experiment with fat-3(wa22) mutant [2] was “significant recovery of growth and development defects”. Moreover, the effect on lifespan entry in the experiment with N2 (WT) animals is given as “did not affect the lifespan”. Further, the “hatching and brood size defects” value in the experiment with fat-3(wa22) mutant [3] is listed as “recovered”.

Consider `CC/C=C\C/C=C\C/C=C\C/C=C\CCCCCCC(=O)NCCO` [ω-3 AEA, Omega-3 N-arachidonoyl ethanolamine], for which the Ki on NPR-32 (setting [5]) was determined as 1000 nM. Also, the concentration for half-maximal inhibition (IC50) at FAAH-1 (whole worm homogenate, 20 min 37 °C, AEA final 2 µM, read-out: IC50, competition with [3H] AEA hydrolysis) is 36 µM; at FAAH (20 min 37 °C, AEA final 2 µM, read-out: IC50, competition with [3H]-AEA hydrolysis), greater than 100 µM.

Regarding “Omega-3 1/2-arachidonoyl glycerol [ω-3 1/2-AG]”, in experiment [1], the “competition with 2-OG hydrolysis” value is given as “competed”.
